Data published in ChEMBL document CHEMBL4177747, “1,5-Disubstituted 1,2,3-triazole linked disaccharides: Metal-free syntheses and screening of a new class of ribonuclease A inhibitors” (Bioorg Med Chem, 2018).
Activity calls are given as the source filed them. The rule behind the calls is not given here.

Legend:
[1] = Inhibition of RNase A (unknown origin) using varying levels of 2',3'-cCMP as substrate by Lineweaver-burk plot analysis; parameters: species or system Homo sapiens
[2] = species: Homo sapiens; assay: Inhibition of RNase A (unknown origin) assessed as reduction in tRNA substrate degradation at 0.1 to 0.2 mM pretreated for 3 hrs followed by substrate addition measured after 30 mins by ethidium bromide staining based agarose gel electrophoresis
[3] = species: Homo sapiens; assay: Inhibition of RNase A (unknown origin) assessed as reduction in tRNA substrate degradation at 0.25 to 0.3 mM pretreated for 3 hrs followed by substrate addition measured after 30 mins by ethidium bromide staining based agarose gel electrophoresis
[4] = species: Homo sapiens; assay: Inhibition of RNase A (unknown origin) assessed as reduction in tRNA substrate degradation at 0.1 to 0.15 mM pretreated for 3 hrs followed by substrate addition measured after 30 mins by ethidium bromide staining based agarose gel electrophoresis
[5] = species: Homo sapiens; assay: Inhibition of RNase A (unknown origin) assessed as reduction in tRNA substrate degradation at 0.6 to 1 mM pretreated for 3 hrs followed by substrate addition measured after 30 mins by ethidium bromide staining based agarose gel electrophoresis
[6] = species: Homo sapiens; assay: Inhibition of RNase A (unknown origin) assessed as reduction in tRNA substrate degradation at 0.35 to 0.5 mM pretreated for 3 hrs followed by substrate addition measured after 30 mins by ethidium bromide staining based agarose gel electrophoresis

| Ki [1] [µM] | inhibition [2] | inhibition [3] | inhibition [4] | inhibition [5] | inhibition [6] | SMILES |
| --- | --- | --- | --- | --- | --- | --- |
| 66 | – | – | – | – | – | Cc1cn([C@@H]2O[C@H](C(=O)N[C@H](CC(=O)O)C(=O)N[C@H]3C[C@H](n4cc(C)c(=O)[nH]c4=O)O[C@@H]3CO)[C@@H](O)[C@H]2O)c(=O)[nH]c1=O |
| 563 | Active | Active | Active | Active | Active | CC1(C)O[C@H]2O[C@H](Cn3nncc3[C@H]3O[C@@H]4OC(C)(C)O[C@@H]4[C@H]3OCc3ccccc3)[C@H](O)[C@H]2O1 |
